Assay results reported in patent EP1001761B1, “USE OF CHOL[…] TREATING ATTENTION DEFICIT DISORDERS” (priority 1997, dated 1999).
Structures can show the parent of a compound that is named as a salt.

Tests used:
patients with ADD = assay: treatment of two ADD patients, measured by ANT (Amsterdam Neuropsychological Tests), reaction times for different tasks; assay type: in vivo; details: for After: mean / After: miss (Missed task) / After: Fa (Failed attempt): after treatment
Excerpt: The protocol in this case is first a baseline testing before medication and retesting after 2 days on medication and then after a week repeated testing. Ecological scales were also used before and are now being evaluated after one week after two weeks etc. for a treatment of one month duration.

solubility in water = assay type: physicochemical; details: room temperature
Protocol: Galantamine and its acid addition salts form crystals. […] If necessary, pharmaceutically-acceptable suspension aids may be employed. Typically, such a suspension will be employed at a concentration of 0.1-50 mg/ml, such as 1-50 mg/ml, more commonly 5-40 mg/ml, for example, 5-30 mg/ml or 10-40 mg/ml, such as 10-30 mg/ml, especially 20-30 mg/ml of galantamine.

SMILES | improvement in attention (reduction in time to complete certain tasks and with fewer errors), normalized data, error analysis (patients with ADD; two patients, 2.5 mg 3 times a day) | solubility in water (solubility in water) | After: mean (patients with ADD; Patient A, task Baseline) | After: mean (patients with ADD; Patient A, task Focused Att.) | After: miss (Missed task) (patients with ADD; Patient A, task Focused Att.) | After: Fa (Failed attempt) (patients with ADD; Patient A, task GoNoGo) | After: mean (patients with ADD; Patient A, task GoNoGo) | After: miss (Missed task) (patients with ADD; Patient A, task GoNoGo) | After: Fa (Failed attempt) (patients with ADD; Patient A, task Sustained Att.) | After: mean (patients with ADD; Patient A, task Sustained Att.) | After: miss (Missed task) (patients with ADD; Patient A, task Sustained Att.) | After: mean (patients with ADD; Patient B, task Baseline) | After: mean (patients with ADD; Patient B, task Focused Att.) | After: miss (Missed task) (patients with ADD; Patient B, task Focused Att.) | After: Fa (Failed attempt) (patients with ADD; Patient B, task GoNoGo) | After: mean (patients with ADD; Patient B, task GoNoGo) | After: miss (Missed task) (patients with ADD; Patient B, task GoNoGo) | After: Fa (Failed attempt) (patients with ADD; Patient B, task Sustained Att.) | After: mean (patients with ADD; Patient B, task Sustained Att.) | After: miss (Missed task) (patients with ADD; Patient B, task Sustained Att.)
COc1ccc2c3c1O[C@H]1C[C@@H](O)C=C[C@@]31CCN(C)C2 [galantamine hydrobromide] | over 2.5 standard deviations | – | – | – | – | – | – | – | – | – | – | – | – | – | – | – | – | – | – | –
COc1ccc2c3c1O[C@H]1C[C@@H](O)C=C[C@@]31CCN(C)C2 [galantamine] | – | only sparingly soluble | 727 ms | 1352 ms | 0 | 2 | 655 ms | 1 | 6 | 1222 ms | 4 | 780 ms | 1166 ms | 3 | 3 | 766 ms | 3 | 50 | 1152 ms | 20
